Laboratory results published in ChEMBL document CHEMBL1144078, “Activity-guided isolation of triterpenoid acyl CoA cholesteryl acyl transferase (ACAT) inhibitors from Ilex kudincha” (J Nat Prod, 1999).

molecular target: T1, Sterol O-acyltransferase 1 (Rattus norvegicus, UniProt O70536); test: Inhibition of rat liver microsomal ACAT
T1 sequence (O70536 whole entry): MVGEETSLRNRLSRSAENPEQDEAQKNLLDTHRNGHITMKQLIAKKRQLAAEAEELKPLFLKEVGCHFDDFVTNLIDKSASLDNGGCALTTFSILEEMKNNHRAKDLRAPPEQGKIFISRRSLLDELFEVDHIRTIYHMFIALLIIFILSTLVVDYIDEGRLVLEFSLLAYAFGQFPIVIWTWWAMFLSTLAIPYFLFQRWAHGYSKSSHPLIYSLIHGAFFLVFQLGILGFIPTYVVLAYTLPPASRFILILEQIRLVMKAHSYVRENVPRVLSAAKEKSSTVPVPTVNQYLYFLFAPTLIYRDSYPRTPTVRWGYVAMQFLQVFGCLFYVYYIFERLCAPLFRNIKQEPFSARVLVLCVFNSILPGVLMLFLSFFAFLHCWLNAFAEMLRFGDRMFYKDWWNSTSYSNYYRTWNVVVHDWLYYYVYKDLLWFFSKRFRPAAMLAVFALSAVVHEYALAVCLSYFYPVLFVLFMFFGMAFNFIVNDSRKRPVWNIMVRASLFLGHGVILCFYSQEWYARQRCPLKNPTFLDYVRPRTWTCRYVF

Structure (SMILES) | IC50
C=C1[C@@H](O)[C@H](O)C[C@]2(C)[C@H]3CC=C4[C@@H]5[C@@H](C)[C@H](C)CC[C@]5(C(=O)O)CC[C@@]4(C)[C@]3(C)CC[C@@H]12 [ILEKUDINOL B] | 44 µM
C=C(C)[C@@H]1CC[C@]2(CO)CC[C@]3(C)[C@H](CC[C@@H]4[C@@]5(C)CC[C@H](O)[C@](C)(CO)[C@@H]5CC[C@]43C)[C@@H]12 [ILEKUDINOL C] | 328 µM
C=C1[C@@H](O)[C@H](O)C[C@]2(C)[C@H]3[C@@H]4O[C@@H]4[C@]45OC(=O)[C@@]6(CC[C@@H](C)[C@H](C)[C@H]64)CC[C@@]5(C)[C@]3(C)CC[C@@H]12 [ULMOIDOL] | 468 µM

Next, values leading:

IC50 | Structure (SMILES)
73 µM | C[C@H]1[C@H](C)CC[C@]2(C(=O)O)CC[C@]3(COC(=O)/C=C/c4ccc(O)cc4)C(=CC[C@@H]4[C@@]5(C)CC[C@H](O)C(C)(C)[C@@H]5CC[C@]43C)[C@H]12
194 µM | C[C@H]1[C@H](C)CC[C@]2(C(=O)O)CC[C@]3(COC(=O)/C=C\c4ccc(O)cc4)C(=CC[C@@H]4[C@@]5(C)CC[C@H](O)[C@@](C)(CO)[C@@H]5CC[C@]43C)[C@H]12
64 µM | C[C@H]1[C@H](C)CC[C@]2(C(=O)O)CC[C@]3(C)C(=CC[C@@H]4[C@@]5(C)CC[C@H](O)[C@@](C)(CO)[C@@H]5CC[C@]43C)[C@H]12
154 µM | C=C1[C@@H](O)[C@H](O)C[C@]2(C)[C@H]3C=C[C@]45OC(=O)[C@@]6(CC[C@@H](C)[C@H](C)[C@H]64)CC[C@@]5(C)[C@]3(C)CC[C@@H]12 [ILEKUDINOL A]
